Laboratory results reported in patent US12226412B2, “Heteroaryl-ketone fused azadecalin glucocorticoid receptor modulators” (Corcept Therapeutics, Inc., priority 2012, dated 2025).
Like-named read-outs stand apart in the source and are kept apart here.

Columns and labels:
human recombinant GR = biological target: T1, human recombinant GR (Homo sapiens, UniProt P04150); assay: Human glucocorticoid receptor (GR) fluorescence polarisation (FP) binding assay
T1 construct: purchased PanVera P2812
T1 sequence (P04150 1-777): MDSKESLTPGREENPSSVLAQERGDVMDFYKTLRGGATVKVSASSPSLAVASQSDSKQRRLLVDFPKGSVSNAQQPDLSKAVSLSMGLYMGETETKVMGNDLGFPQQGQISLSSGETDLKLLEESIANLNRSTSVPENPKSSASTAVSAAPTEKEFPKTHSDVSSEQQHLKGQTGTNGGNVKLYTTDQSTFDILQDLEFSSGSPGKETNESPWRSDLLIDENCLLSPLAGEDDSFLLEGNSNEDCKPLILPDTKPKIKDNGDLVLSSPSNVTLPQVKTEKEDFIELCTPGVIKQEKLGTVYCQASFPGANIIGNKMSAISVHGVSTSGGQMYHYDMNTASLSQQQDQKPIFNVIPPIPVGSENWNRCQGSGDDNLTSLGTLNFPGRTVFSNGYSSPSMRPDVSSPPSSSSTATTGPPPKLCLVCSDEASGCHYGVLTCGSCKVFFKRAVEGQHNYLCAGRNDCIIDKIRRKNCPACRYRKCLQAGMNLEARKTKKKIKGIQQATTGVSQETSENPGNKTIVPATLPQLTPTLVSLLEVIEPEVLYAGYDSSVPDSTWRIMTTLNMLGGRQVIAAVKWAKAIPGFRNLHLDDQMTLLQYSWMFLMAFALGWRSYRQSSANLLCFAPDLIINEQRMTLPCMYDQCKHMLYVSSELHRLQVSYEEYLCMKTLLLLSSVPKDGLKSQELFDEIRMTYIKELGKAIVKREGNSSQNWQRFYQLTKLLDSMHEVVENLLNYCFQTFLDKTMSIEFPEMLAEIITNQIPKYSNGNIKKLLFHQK
Summary of the method: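 Competition fluorescence polarisation: 0.5 nM GS Red labelled glucocorticoid and 1 nM recombinant human GR with 8-point half-log compound series, 1% DMSO, 4 h room temperature, potassium phosphate pH 7.4 buffer with molybdate, EDTA, DTT. Affinity derived from the drop in polarisation, normalised to blank wells.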

[1] = tested on: induction of TAT by dexamethasone in HepG2 cells; assay: HepG2 tyrosine aminotransferase (TAT) assay; format: cell-based, human
[2] = human recombinant GR, fluorescence polarisation binding assay, read-out: GR binding
[3] = HepG2 cells, challenge of 100 nM dexamethasone, Ki from IC50 by Cheng and Prusoff equation

Ki (human recombinant GR; [2]) | Structure (SMILES) | Ki [1, 3] | Ki (human recombinant GR) | Ki [1]
< 0.5 nM | O=C(c1nccs1)[C@]12Cc3cnn(-c4ccc(F)cc4)c3C=C1CCN(S(=O)(=O)c1ccc(F)cc1)C2 [Example 5, (R)-(1-(4-fluorophenyl)-6-((4-fluorophenyl)sulfonyl)-4,4a,5,6,7,8-hexahydro-1H-pyrazolo[3,4-g]isoquinolin-4a-yl)(thiazol-2-yl)methanone] | 20 to 100 nM |  | 
< 0.5 nM | O=C(c1nccs1)[C@]12Cc3cnn(-c4ccc(F)cc4)c3C=C1CCN(S(=O)(=O)c1cccc(F)c1)C2 [Example 5A, (R)-(1-(4-fluorophenyl)-6-((3-fluorophenyl)sulfonyl)-4,4a,5,6,7,8-hexahydro-1H-pyrazolo[3,4-g]isoquinolin-4a-yl)(thiazol-2-yl)methanone] | < 20 nM |  | 
< 0.5 nM | N#Cc1ccc(CS(=O)(=O)N2CCC3=Cc4c(cnn4-c4ccc(F)cc4)C[C@]3(C(=O)c3nccs3)C2)cc1 [Example 5B, (R)-4-(((1-(4-fluorophenyl)-4a-(thiazole-2-carbonyl)-4a,5,7,8-tetrahydro-1H-pyrazolo[3,4-g]isoquinolin-6 (4H)-yl)sulfonyl)methyl)benzonitrile] | ≥ 100 nM |  | 
 | O=C(c1ccccn1)[C@]12Cc3cnn(-c4ccc(F)cc4)c3C=C1CCN(S(=O)(=O)c1cccc(C(F)(F)F)c1)C2 [Example 5C, (R)-(1-(4-fluorophenyl)-6-((3-(trifluoromethyl)phenyl)sulfonyl)-4,4a,5,6,7,8-hexahydro-1H-pyrazolo[3,4-g]isoquinolin-4a-yl)(pyridin-2-yl)methanone] |  | < 0.5 nM | < 20 nM
< 0.5 nM | Cn1ncnc1C(=O)[C@]12Cc3cnn(-c4ccc(F)cc4)c3C=C1CCN(S(=O)(=O)c1ccc(C(F)(F)F)cc1)C2 [Example 5D, (R)-(1-(4-fluorophenyl)-6-((4-(trifluoromethyl)phenyl)sulfonyl)-4,4a,5,6,7,8-hexahydro-1H-pyrazolo[3,4-g]isoquinolin-4a-yl)(1-methyl-1H-1,2,4-triazol-5-yl)methanone] | ≥ 100 nM |  | 
 | O=C(c1cnccn1)[C@]12Cc3cnn(-c4ccc(F)cc4)c3C=C1CCN(S(=O)(=O)c1ccc(C(F)(F)F)cc1)C2 [Example 5E, (R)-(1-(4-fluorophenyl)-6-((4-(trifluoromethyl)phenyl)sulfonyl)-4,4a,5,6,7,8-hexahydro-1H-pyrazolo[3,4-g]isoquinolin-4a-yl)(pyrazin-2-yl)methanone] |  | < 0.5 nM | 20 to 100 nM
< 0.5 nM | O=C(c1ccccn1)[C@]12Cc3cnn(-c4ccc(F)cc4)c3C=C1CCN(S(=O)(=O)c1cncc(F)c1)C2 [Example 5F, (R)-(1-(4-fluorophenyl)-6-((5-fluoropyridin-3-yl)sulfonyl)-4,4a,5,6,7,8-hexahydro-1H-pyrazolo[3,4-g]isoquinolin-4a-yl)(pyridin-2-yl)methanone] | 20 to 100 nM |  | 
< 0.5 nM | O=C(c1ccccn1)[C@]12Cc3cnn(-c4ccc(F)cc4)c3C=C1CCN(S(=O)(=O)c1cccc(F)c1)C2 [Example 5G, (R)-(1-(4-fluorophenyl)-6-((3-fluorophenyl)sulfonyl)-4,4a,5,6,7,8-hexahydro-1H-pyrazolo[3,4-g]isoquinolin-4a-yl)(pyridin-2-yl)methanone] | < 20 nM |  | 
0.5 to 1 nM | COc1ccc(C(=O)[C@]23Cc4cnn(-c5ccc(F)cc5)c4C=C2CCN(S(=O)(=O)c2ccc(C(F)(F)F)cc2)C3)nc1 [Example 5H, (R)-(1-(4-fluorophenyl)-6-((4-(trifluoromethyl)phenyl)sulfonyl)-4,4a,5,6,7,8-hexahydro-1H-pyrazolo[3,4-g]isoquinolin-4a-yl)(5-methoxypyridin-2-yl)methanone] | < 20 nM |  | 
 | O=C(c1cncs1)[C@]12Cc3cnn(-c4ccc(F)cc4)c3C=C1CCN(S(=O)(=O)c1ccc(C(F)(F)F)cc1)C2 [Example 5I, (R)-(1-(4-fluorophenyl)-6-((4-(trifluoromethyl)phenyl)sulfonyl)-4,4a,5,6,7,8-hexahydro-1H-pyrazolo[3,4-g]isoquinolin-4a-yl)(thiazol-5-yl)methanone] |  | < 0.5 nM | > 100 nM
0.5 to 1 nM | O=C(c1nccs1)[C@]12Cc3cnn(-c4ccc(F)cc4)c3C=C1CCN(S(=O)(=O)c1ccc(N3CCCC3)cc1)C2 [Example 6, (R)-(1-(4-fluorophenyl)-6-((4-(pyrrolidin-1-yl)phenyl)sulfonyl)-4,4a,5,6,7,8-hexahydro-1H-pyrazolo[3,4-g]isoquinolin-4a-yl)(thiazol-2-yl)methanone] | 20 to 100 nM |  | 
< 0.5 nM | O=C(c1nccs1)[C@]12Cc3cnn(-c4ccc(F)cc4)c3C=C1CCN(S(=O)(=O)c1cccc(N3CCCC3)c1)C2 [Example 6A, (R)-(1-(4-fluorophenyl)-6-((3-(pyrrolidin-1-yl)phenyl)sulfonyl)-4,4a,5,6,7,8-hexahydro-1H-pyrazolo[3,4-g]isoquinolin-4a-yl)(thiazol-2-yl)methanone] | ≥ 100 nM |  | 
< 0.5 nM | O=C(c1nccs1)[C@]12Cc3cnn(-c4ccc(F)cc4)c3C=C1CCN(S(=O)(=O)c1cncc(N3CCCCC3)c1)C2 [Example 7, (R)-(1-(4-fluorophenyl)-6-((5-(piperidin-1-yl)pyridin-3-yl)sulfonyl)-4,4a,5,6,7,8-hexahydro-1H-pyrazolo[3,4-g]isoquinolin-4a-yl)(thiazol-2-yl)methanone] | 20 to 100 nM |  | 
< 0.5 nM | O=C(c1nccs1)[C@]12Cc3cnn(-c4ccc(F)cc4)c3C=C1CCN(S(=O)(=O)c1cncc(N3CCCC3)c1)C2 [Example 7A, (R)-(1-(4-fluorophenyl)-6-((5-(pyrrolidin-1-yl)pyridin-3-yl)sulfonyl)-4,4a,5,6,7,8-hexahydro-1H-pyrazolo[3,4-g]isoquinolin-4a-yl)(thiazol-2-yl)methanone] | 20 to 100 nM |  | 
< 0.5 nM | O=C(c1ccccn1)[C@]12Cc3cnn(-c4ccc(F)cc4)c3C=C1CCN(S(=O)(=O)c1ccc(N3CCCC3)nc1)C2 [Example 8, (R)-(1-(4-fluorophenyl)-6-((6-(pyrrolidin-1-yl)pyridin-3-yl)sulfonyl)-4,4a,5,6,7,8-hexahydro-1H-pyrazolo[3,4-g]isoquinolin-4a-yl)(pyridin-2-yl)methanone] | ≥ 100 nM |  | 
< 0.5 nM | O=C(c1nccs1)[C@]12Cc3cnn(-c4ccc(F)cc4)c3C=C1CCN(S(=O)(=O)c1ccc(N3CC[C@@H](F)C3)nc1)C2 [Example 9, ((R)-1-(4-fluorophenyl)-6-((6-((R)-3-fluoropyrrolidin-1-yl)pyridin-3-yl)sulfonyl)-4,4a,5,6,7,8-hexahydro-1H-pyrazolo[3,4-g]isoquinolin-4a-yl)(thiazol-2-yl)methanone] | ≥ 100 nM |  | 
< 0.5 nM | O=C(c1ccccn1)[C@]12Cc3cnn(-c4ccc(F)cc4)c3C=C1CCN(S(=O)(=O)c1ccc(N3CCCC3)cc1)C2 [Example 10, (R)-(1-(4-fluorophenyl)-6-((4-(pyrrolidin-1-yl)phenyl)sulfonyl)-4,4a,5,6,7,8-hexahydro-1H-pyrazolo[3,4-g]isoquinolin-4a-yl)(pyridin-2-yl)methanone] | ≥ 100 nM |  | 
< 0.5 nM | O=C(c1ccccn1)[C@]12Cc3cnn(-c4ccc(F)cc4)c3C=C1CCN(S(=O)(=O)c1cncc(N3CCCC3)c1)C2 [Example 10B, (R)-(1-(4-fluorophenyl)-6-((5-(pyrrolidin-1-yl)pyridin-3-yl)sulfonyl)-4,4a,5,6,7,8-hexahydro-1H-pyrazolo[3,4-g]isoquinolin-4a-yl)(pyridin-2-yl)methanone] | < 20 nM |  | 
 | O=C(c1cscn1)[C@]12Cc3cnn(-c4ccc(F)cc4)c3C=C1CCN(S(=O)(=O)c1ccc(C(F)(F)F)cc1)C2 [Example 11, (R)-(1-(4-fluorophenyl)-6-((4-(trifluoromethyl)phenyl)sulfonyl)-4,4a,5,6,7,8-hexahydro-1H-pyrazolo[3,4-g]isoquinolin-4a-yl)(thiazol-4-yl)methanone] | 20 to 100 nM | < 0.5 nM | 
< 0.5 nM | O=C(c1ccccn1)[C@]12Cc3cnn(-c4ccc(F)cc4)c3C=C1CCN(S(=O)(=O)c1ccc(Cl)cc1)C2 [Example 11A, (R)-(6-((4-chlorophenyl)sulfonyl)-1-(4-fluorophenyl)-4,4a,5,6,7,8-hexahydro-1H-pyrazolo[3,4-g]isoquinolin-4a-yl)(pyridin-2-yl)methanone] | < 20 nM |  | 
< 0.5 nM | COCc1cccc(S(=O)(=O)N2CCC3=Cc4c(cnn4-c4ccc(F)cc4)C[C@]3(C(=O)c3ccccn3)C2)c1 [Example 11AA, (R)-(1-(4-fluorophenyl)-6-((3-(methoxymethyl)phenyl)sulfonyl)-4,4a,5,6,7,8-hexahydro-1H-pyrazolo[3,4-g]isoquinolin-4a-yl)(pyridin-2-yl)methanone] | 20 to 100 nM |  | 
